The supplement of paper PMC10307832

Legend:
Experiment in all cases: relative viability (nuclei count vs DMSO), 5 days (fraction); higher = more cells survive
H3255 = tested on: H3255
How it was run: (§1)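 Relative viability divides the nuclei count in treated wells by that in vehicle wells. Lung cancer cell lines were seeded in 1536-well plates, dosed by pin tool the next day, and fixed and stained after 5 days in one step with final 0.05% Triton X-100, 1% formaldehyde and 1 ug/ml Hoechst. Dosing was a single drug or a fixed anchor-drug dose plus five library-drug doses (not always all listed) in √10 steps, and values are medians of duplicate plates imaged at 4×.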

SK-LU-1 = tested on: SK-LU-1
How it was run: as §1

NCI-H358 = tested on: NCI-H358
How it was run: as §1

NCI-H2405 = tested on: NCI-H2405
How it was run: as §1

NCI-H1648 = tested on: NCI-H1648
How it was run: as §1

BEN = tested on: BEN
How it was run: as §1

NCI-H1650 = tested on: NCI-H1650
How it was run: as §1

UMC-11 = tested on: UMC-11
How it was run: as §1

A-427 = tested on: A-427
How it was run: as §1

NCI-H1666 = tested on: NCI-H1666
How it was run: as §1

NCI-H727 = tested on: NCI-H727
How it was run: as §1

NCI-H2126 = tested on: NCI-H2126
How it was run: as §1

NCI-H2087 = tested on: NCI-H2087
How it was run: as §1

NCI-H2009 = tested on: NCI-H2009
How it was run: as §1

NCI-H3122 = tested on: NCI-H3122
How it was run: as §1

EKVX = tested on: EKVX
How it was run: as §1

NCI-H520 = tested on: NCI-H520
How it was run: as §1

NCI-H441 = tested on: NCI-H441
How it was run: as §1

NCI-H322M = tested on: NCI-H322M
How it was run: as §1

NCI-H23 = tested on: NCI-H23
How it was run: as §1

NCI-H1755 = tested on: NCI-H1755
How it was run: as §1

NCI-H1437 = tested on: NCI-H1437
How it was run: as §1

NCI-H2347 = tested on: NCI-H2347
How it was run: as §1

ChaGo-K-1 = tested on: ChaGo-K-1
How it was run: as §1

## Oc1nc(-c2ccc(C(F)(F)F)cc2)nc2c1CSCC2 [XAV939] + CC(=O)Nc1cccc(-n2c(=O)n(C3CC3)c(=O)c3c(Nc4ccc(I)cc4F)n(C)c(=O)c(C)c32)c1 [Trametinib] (partner 0.02 µM)
H3255; first compound 0.08 µM
  relative viability: 0.674
H3255; first compound 0.253 µM
  relative viability: 0.528
H3255; first compound 0.8 µM
  relative viability: 0.62
H3255; first compound 2.53 µM
  relative viability: 0.425
SK-LU-1; first compound 0.08 µM
  relative viability: 0.537
SK-LU-1; first compound 0.253 µM
  relative viability: 0.44
SK-LU-1; first compound 0.8 µM
  relative viability: 0.543
SK-LU-1; first compound 2.53 µM
  relative viability: 0.582
NCI-H358; first compound 0.08 µM
  relative viability: 0.139
NCI-H358; first compound 0.253 µM
  relative viability: 0.134
NCI-H358; first compound 0.8 µM
  relative viability: 0.122
NCI-H358; first compound 2.53 µM
  relative viability: 0.108
NCI-H2405; first compound 0.08 µM
  relative viability: 0.685
NCI-H2405; first compound 0.253 µM
  relative viability: 0.591
NCI-H2405; first compound 0.8 µM
  relative viability: 0.607
NCI-H2405; first compound 2.53 µM
  relative viability: 0.412
NCI-H1648; first compound 0.253 µM
  relative viability: 0.438
NCI-H1648; first compound 0.8 µM
  relative viability: 0.606
NCI-H1648; first compound 2.53 µM
  relative viability: 0.361
BEN; first compound 0.08 µM
  relative viability: 1.07
BEN; first compound 0.253 µM
  relative viability: 1.01
BEN; first compound 0.8 µM
  relative viability: 1.19
BEN; first compound 2.53 µM
  relative viability: 0.88
NCI-H1650; first compound 0.08 µM
  relative viability: 0.568
NCI-H1650; first compound 0.253 µM
  relative viability: 0.511
NCI-H1650; first compound 0.8 µM
  relative viability: 0.591
NCI-H1650; first compound 2.53 µM
  relative viability: 0.303
UMC-11; first compound 0.08 µM
  relative viability: 0.692
UMC-11; first compound 0.253 µM
  relative viability: 0.703
UMC-11; first compound 0.8 µM
  relative viability: 0.879
UMC-11; first compound 2.53 µM
  relative viability: 0.632
A-427; first compound 0.08 µM
  relative viability: 0.818
A-427; first compound 0.253 µM
  relative viability: 0.737
A-427; first compound 0.8 µM
  relative viability: 0.781
A-427; first compound 2.53 µM
  relative viability: 0.658
NCI-H1666; first compound 0.08 µM
  relative viability: 1
NCI-H1666; first compound 0.253 µM
  relative viability: 0.834
NCI-H1666; first compound 0.8 µM
  relative viability: 0.754
NCI-H1666; first compound 2.53 µM
  relative viability: 0.871
NCI-H727; first compound 0.08 µM
  relative viability: 0.361
NCI-H727; first compound 0.8 µM
  relative viability: 0.398
NCI-H727; first compound 2.53 µM
  relative viability: 0.403
NCI-H2126; first compound 0.08 µM
  relative viability: 0.458
NCI-H2126; first compound 0.253 µM
  relative viability: 0.44
NCI-H2126; first compound 0.8 µM
  relative viability: 0.478
NCI-H2126; first compound 2.53 µM
  relative viability: 0.392
NCI-H2087; first compound 0.08 µM
  relative viability: 0.198
NCI-H2087; first compound 0.253 µM
  relative viability: 0.168
NCI-H2087; first compound 0.8 µM
  relative viability: 0.215
NCI-H2087; first compound 2.53 µM
  relative viability: 0.147
NCI-H2009; first compound 0.08 µM
  relative viability: 0.287
NCI-H2009; first compound 0.253 µM
  relative viability: 0.281
NCI-H2009; first compound 0.8 µM
  relative viability: 0.19
NCI-H2009; first compound 2.53 µM
  relative viability: 0.217
NCI-H3122; first compound 0.08 µM
  relative viability: 0.257
NCI-H3122; first compound 0.253 µM
  relative viability: 0.211
NCI-H3122; first compound 0.8 µM
  relative viability: 0.237
NCI-H3122; first compound 2.53 µM
  relative viability: 0.196
EKVX; first compound 0.08 µM
  relative viability: 0.346
EKVX; first compound 0.253 µM
  relative viability: 0.317
EKVX; first compound 0.8 µM
  relative viability: 0.311
EKVX; first compound 2.53 µM
  relative viability: 0.245
NCI-H520; first compound 0.08 µM
  relative viability: 0.687
NCI-H520; first compound 0.8 µM
  relative viability: 0.501
NCI-H520; first compound 2.53 µM
  relative viability: 0.427
NCI-H441; first compound 0.08 µM
  relative viability: 0.513
NCI-H441; first compound 0.253 µM
  relative viability: 0.366
NCI-H441; first compound 0.8 µM
  relative viability: 0.414
NCI-H441; first compound 2.53 µM
  relative viability: 0.484
NCI-H322M; first compound 0.08 µM
  relative viability: 0.601
NCI-H322M; first compound 0.253 µM
  relative viability: 0.526
NCI-H322M; first compound 0.8 µM
  relative viability: 0.555
NCI-H322M; first compound 2.53 µM
  relative viability: 0.48
NCI-H23; first compound 0.08 µM
  relative viability: 0.383
NCI-H23; first compound 0.8 µM
  relative viability: 0.403
NCI-H23; first compound 2.53 µM
  relative viability: 0.349
NCI-H1755; first compound 0.08 µM
  relative viability: 0.719
NCI-H1755; first compound 0.253 µM
  relative viability: 0.64
NCI-H1755; first compound 0.8 µM
  relative viability: 0.661
NCI-H1755; first compound 2.53 µM
  relative viability: 0.692
NCI-H1437; first compound 0.08 µM
  relative viability: 0.499
NCI-H1437; first compound 0.253 µM
  relative viability: 0.407
NCI-H1437; first compound 0.8 µM
  relative viability: 0.518
NCI-H1437; first compound 2.53 µM
  relative viability: 0.29
NCI-H2347; first compound 0.08 µM
  relative viability: 0.302
NCI-H2347; first compound 0.253 µM
  relative viability: 0.278
NCI-H2347; first compound 0.8 µM
  relative viability: 0.308
NCI-H2347; first compound 2.53 µM
  relative viability: 0.236
ChaGo-K-1; first compound 0.08 µM
  relative viability: 0.977
ChaGo-K-1; first compound 0.253 µM
  relative viability: 0.82
ChaGo-K-1; first compound 0.8 µM
  relative viability: 0.907
ChaGo-K-1; first compound 2.53 µM
  relative viability: 0.802
